{"source": "patent US8974801B2", "about": "“Long term sustained release pharmaceutical composition containing aqueous suspension of bisphosphonate” (priority 2006, dated 2015)", "details": "female, Sprague-Dawley, rat, in vivo"}
{"molecule": "NCCCC(O)(P(=O)(O)O)P(=O)(O)O", "note": "[Alendronate Calcium, alendronate calcium]", "values": [{"measurement": "Total Net Bone Absorbed", "value": 770}]}
